Data as given in US9701689B2, “Substituted pyridines and pyridazines as CCR10 receptor inhibitors” (KYOWA HAKKO KIRIN CO., LTD., priority 2012, dated 2017).

The compounds below were run against T1, human CCR10 (Homo sapiens, UniProt P46092) (assay: CCR10 antagonistic effect: calcium assay of human CCR10 (CTACK-induced increase of intracellular calcium in hCCR10G16 cells)). Conditions: at a concentration of not more than 1000 nmol/L; human CCR10-expressing hCCR10G16 cells, 300 nmol/L CTACK added; read-out: inhibition of increase in the calcium ion concentration.
T1 construct: expressed in transfected cells; host or cells: KJMGER8 cells (Namalwa cell-derived line), beta-estradiol-induced; hCCR10G16 cells
T1 sequence (P46092 1-362): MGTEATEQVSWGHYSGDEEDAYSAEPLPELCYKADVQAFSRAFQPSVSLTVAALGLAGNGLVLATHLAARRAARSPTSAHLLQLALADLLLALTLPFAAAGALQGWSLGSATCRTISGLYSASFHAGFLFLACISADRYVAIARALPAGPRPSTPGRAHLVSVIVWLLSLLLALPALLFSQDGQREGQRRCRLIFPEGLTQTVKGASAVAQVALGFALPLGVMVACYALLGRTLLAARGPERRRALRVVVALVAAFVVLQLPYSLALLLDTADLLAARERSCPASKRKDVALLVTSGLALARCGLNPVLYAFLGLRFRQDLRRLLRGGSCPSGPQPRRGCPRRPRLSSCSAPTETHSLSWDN
Assay type: cell-based
Summary of the method: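 KJMGER8-derived hCCR10G16 cells (CCR10 plus Gα16, induced 24 h with 10 nmol/L β-estradiol), Fluo-3 loaded, preincubated with compound 30 min at 37 °C. Stimulated with CTACK (300 nmol/L solution before addition); calcium read ~5 min by FDSS, max−min fluorescence; % inhibition vs control.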

inhibition at up to 1 µM | Compound
≥ 50% | Cc1cc([N+](=O)[O-])ccc1Nc1c(C(=O)N2CCC(c3ccc(F)cc3)CC2)cnc(S(N)(=O)=O)c1Cl [Compound 318, 3-chloro-5-[4-(4-fluorophenyl)piperidine-1-carbonyl]-4-(2-methyl-4-nitrophenylamino)pyridine-2-sulfonamide]
≥ 50% | Cc1cc(C#N)c(Nc2c(C(=O)N3CCC(c4ccc(F)cc4)CC3)cnc(S(N)(=O)=O)c2Cl)cc1C [Compound 320, 3-chloro-4-(2-cyano-4,5-dimethylphenylamino)-5-[4-(4-fluorophenyl)piperidine-1-carbonyl]pyridine-2-sulfonamide]
≥ 50% | COc1ccc(C#N)c(Nc2c(C(=O)N3CCC(c4ccc(F)cc4)CC3)cnc(S(N)(=O)=O)c2Cl)c1 [Compound 321, 3-chloro-4-(2-cyano-5-methoxyphenylamino)-5-[4-(4-fluorophenyl)piperidine-1-carbonyl]pyridine-2-sulfonamide]
≥ 50% | N#Cc1ccc([N+](=O)[O-])cc1Nc1c(C(=O)N2CCC(c3ccc(F)cc3)CC2)cnc(S(N)(=O)=O)c1Cl [Compound 322, 3-chloro-4-(2-cyano-5-nitrophenylamino)-5-[4-(4-fluorophenyl)piperidine-1-carbonyl]pyridine-2-sulfonamide]
≥ 50% | NS(=O)(=O)c1ncc(C(=O)N2CCC(c3ccc(F)cc3)CC2)c(Nc2cc(F)ccc2Cl)c1Cl [Compound 325, 3-chloro-4-(2-chloro-5-fluorophenylamino)-5-[4-(4-fluorophenyl)piperidine-1-carbonyl]pyridine-2-sulfonamide]
≥ 50% | Cc1ccc(Nc2c(C(=O)N3CCC(c4ccc(F)cc4)CC3)cnc(S(N)(=O)=O)c2Cl)c(F)c1 [Compound 328, 3-chloro-4-(2-fluoro-4-methylphenylamino)-5-[4-(4-fluorophenyl)piperidine-1-carbonyl]pyridine-2-sulfonamide]
≥ 50% | Cc1cc(S(C)(=O)=O)ccc1Nc1c(C(=O)N2CCC(c3ccc(F)cc3)CC2)cnc(S(N)(=O)=O)c1Cl [Compound 329, 3-chloro-5-[4-(4-fluorophenyl)piperidine-1-carbonyl]-4-[2-methyl-4-(methylsulfonyl)phenylamino]pyridine-2-sulfonamide]

The next lines start with the compound.

Compound | inhibition at up to 1 µM
Cc1cc(F)ccc1Nc1cc(S(=O)(=O)Nc2ccon2)ncc1C(=O)N1CCC(c2ccc(F)cc2)CC1 [Compound 11, 4-(4-fluoro-2-methylphenylamino)-5-[4-(4-fluorophenyl)piperidine-1-carbonyl]-N-(isoxazol-3-yl)pyridine-2-sulfonamide] | ≥ 50%
Cc1ccc(C(F)(F)F)cc1Nc1c(C(=O)N2CCC(c3ccc(F)cc3)CC2)cnc(S(N)(=O)=O)c1Cl [Compound 311, 3-chloro-5-[4-(4-fluorophenyl)piperidine-1-carbonyl]-4-[2-methyl-5-(trifluoromethyl)phenylamino]pyridine-2-sulfonamide] | ≥ 50%
NS(=O)(=O)c1ncc(C(=O)N2CCC(c3ccc(F)cc3)CC2)c(Nc2ccc(OC(F)F)cc2)c1Cl [Compound 312, 3-chloro-4-[4-(difluoromethoxy)phenylamino]-5-[4-(4-fluorophenyl)piperidine-1-carbonyl]pyridine-2-sulfonamide] | ≥ 50%
COC1(c2ccc(F)cc2)CCN(C(=O)c2cnc(S(N)(=O)=O)c(Cl)c2Nc2cc(Cl)ccc2C)CC1 [Compound 313, 3-chloro-4-(5-chloro-2-methylphenylamino)-5-[4-(4-fluorophenyl)-4-methoxypiperidine-1-carbonyl]pyridine-2-sulfonamide] | ≥ 50%
Cc1ccc(Cl)cc1Nc1c(C(=O)N2CC(c3ccc(F)cc3)C2)cnc(S(N)(=O)=O)c1Cl [Compound 314, 3-chloro-4-(5-chloro-2-methylphenylamino)-5-[3-(4-fluorophenyl)azetidine-1-carbonyl]pyridine-2-sulfonamide] | ≥ 50%
Cc1cc(NS(=O)(=O)c2ncc(C(=O)N3CCC(c4ccc(F)cc4)CC3)c(Nc3cc(F)ccc3F)c2C)sn1 [Compound 315, 4-(2,5-difluorophenylamino)-5-[4-(4-fluorophenyl)piperidine-1-carbonyl]-3-methyl-N-(3-methylisothiazol-5-yl)pyridine-2-sulfonamide] | ≥ 50%
Cc1cc(NS(=O)(=O)c2ncc(C(=O)N3CCC(c4ccc(F)cc4)CC3)c(Nc3ccc(F)cc3F)c2C)sn1 [Compound 316, 4-(2,4-difluorophenylamino)-5-[4-(4-fluorophenyl)piperidine-1-carbonyl]-3-methyl-N-(3-methylisothiazol-5-yl)pyridine-2-sulfonamide] | ≥ 50%
Cc1ccccc1Nc1c(C(=O)N2CCC(c3ccc(F)cc3)CC2)cnc(S(=O)(=O)Nc2ccn(C)n2)c1Cl [Compound 317, 3-chloro-5-[4-(4-fluorophenyl)piperidine-1-carbonyl]-N-(1-methyl-1H-pyrazol-3-yl)-4-(o-tolylamino)pyridine-2-sulfonamide] | ≥ 50%
NS(=O)(=O)c1ncc(C(=O)N2CCC(c3ccc(F)cc3)CC2)c(Nc2cccc(Br)c2)c1Cl [Compound 319, 4-(3-bromophenylamino)-3-chloro-5-[4-(4-fluorophenyl)piperidine-1-carbonyl]pyridine-2-sulfonamide] | ≥ 50%
Cc1ccc(Cl)cc1Nc1c(C(=O)N2CCC3(CC2)COc2ccccc23)cnc(S(N)(=O)=O)c1Cl [Compound 323, 3-chloro-4-(5-chloro-2-methylphenylamino)-5-(2H-spiro[benzofuran-3,4′-piperidin]-1′-ylcarbonyl)pyridine-2-sulfonamide] | ≥ 50%
COc1ccc(Cl)c(Nc2c(C(=O)N3CCC(c4ccc(F)cc4)CC3)cnc(S(N)(=O)=O)c2Cl)c1 [Compound 324, 3-chloro-4-(2-chloro-5-methoxyphenylamino)-5-[4-(4-fluorophenyl)piperidine-1-carbonyl]pyridine-2-sulfonamide] | ≥ 50%
Cc1cnc(C)c(Nc2c(C(=O)N3CCC(c4ccc(F)cc4)CC3)cnc(S(N)(=O)=O)c2Cl)c1 [Compound 326, 3-chloro-4-(2,5-dimethylpyridin-3-ylamino)-5-[4-(4-fluorophenyl)piperidine-1-carbonyl]pyridine-2-sulfonamide] | ≥ 50%
NS(=O)(=O)c1ncc(C(=O)N2CCC(c3ccc(F)cc3)CC2)c(Nc2ccc(Cl)nc2Cl)c1Cl [Compound 327, 3-chloro-4-(2,6-dichloropyridin-3-ylamino)-5-[4-(4-fluorophenyl)piperidine-1-carbonyl]pyridine-2-sulfonamide] | ≥ 50%
NS(=O)(=O)c1ncc(C(=O)N2CC(c3ccc(F)cc3)C2)c(NC2(c3ccccc3)CC2)c1Cl [Compound 330, 3-chloro-5-[3-(4-fluorophenyl)azetidine-1-carbonyl]-4-(1-phenylcyclopropylamino)pyridine-2-sulfonamide] | ≥ 50%
Cc1ccccc1Nc1c(C(=O)N2CCC(c3ccc(F)cc3)CC2)cnc(S(N)(=O)=O)c1C [Compound 331, 5-[4-(4-fluorophenyl)piperidine-1-carbonyl]-3-methyl-4-(o-tolylamino)pyridine-2-sulfonamide] | ≥ 50%

What follows are compounds tested on Dinitrofluorobenzene-induced Auricle Edema Reaction in Mouse (assay: Suppressive action on dinitrofluorobenzene-induced auricle edema reaction in mouse). Conditions: BALB/c mice, topical application in acetone; summary of Table 28.
Assay type: in vivo
Protocol: [Experimental Example 2] Suppressive Action on Dinitrofluorobenzene-induced Auricle Edema Reaction in Mouse
BALB/c mice (female, supplied by CHARLES RIVER LABORATORIES JAPAN, INC.) were purchased at the age of 5 weeks. After quarantine and acclimation, mice showing smooth body weight increase and free of abnormality in appearance were used and the test was started at the age of 7 weeks. The mice were housed in a breeding room at room temperature 19-25° C., humidity 30-70%, 12 hr lighting per day (7 a.m.-7 p.m.) with 3 mice in each plastic gauge, and bred on with free ingestion of a commercially available solid feed and water.
Two days before the test, the abdomen of the BALB/c mice was shaved, and the mice were immunized by applying 100 μL of a solution {concentration 0.5% [weight (w)/volume (v) %]} of dinitrofluorobenzene (manufactured by Nacalai Tesque) in acetone (manufactured by Wako Pure Chemical Industries, Ltd.) to the shaved part. The reaction was induced by applying dinitrofluorobenzene-acetone solution [concentration 0.2% (w/v %)] to the front and the back of auricle (10 μL to each, total 20 μL) on day 5 after the immunization. A test compound dissolved in acetone at concentration of 0.1% or 1% (w/v %) was administered by applying same to the front and the back of auricle (10 μL to each, total 20 μL) 1 hr before and 3 hr after induction of the reaction. After application, the applied part was air-dried with a dryer.
The group applying administered with the test compound was taken as a test compound administration group, and the group applying administered with acetone as a solvent instead of the test compound was taken as a solvent administration group. Also, the group free of immunization and reaction induction but applying administered with acetone instead of the test compound was taken as a normal group. The thickness of auricle was measured using a dial thickness gauge (G-1A manufactured by OZAKI MFG. CO., LTD.) immediately before and 24 hr after induction of the reaction, and the difference thereof was taken as auricle edema. The suppression rate (%) of auricle edema was calculated according to the following formula.

Compound | suppressive action on auricle edema response (in words)
Cc1cc(F)ccc1Nc1cc(S(=O)(=O)Nc2ccon2)ncc1C(=O)N1CCC(c2ccc(F)cc2)CC1 [Compound 11, 4-(4-fluoro-2-methylphenylamino)-5-[4-(4-fluorophenyl)piperidine-1-carbonyl]-N-(isoxazol-3-yl)pyridine-2-sulfonamide] | showed a suppressive action on auricle edema response

Same assay, conditions: Mus musculus, topical; test compound concentration 1% (w/v) in acetone, applied to auricle 1 hr before and 3 hr after induction; BALB/c mice; measured 24 hr after induction; read-out: auricle edema suppression rate (%)

Compound | inhibition in vivo at 1 %
Cc1cc(F)ccc1Nc1cc(S(=O)(=O)Nc2ccon2)ncc1C(=O)N1CCC(c2ccc(F)cc2)CC1 [Compound 11, 4-(4-fluoro-2-methylphenylamino)-5-[4-(4-fluorophenyl)piperidine-1-carbonyl]-N-(isoxazol-3-yl)pyridine-2-sulfonamide] | 32%
